In PubChem BioAssay AID1919001 (Molecular Pharmacology Branch, DTP, NCI, 2023):
Where “and” joins values, the source holds several entries; their conditions need not be identical. Identical values can stand only once.

System: 699152-130-R-J1-PDC complex spheroid growth
Test: Anticancer human tumor 699152-130-R-J1-PDC patient-derived pancreatic carcinoma cell line growth inhibition [AhR]
Settings: for viability, T/C: stronger effect = lower value; active = viability on the fitted dose curve at most 10% of control; inactive = the rest
In short: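 Spheroids combined tumor cells with HUVEC endothelial cells and human MSCs as stroma. AhR antagonists were paired with standard or investigational drugs, each dosed in half-log steps down from near clinical Cmax, or from 10 microM where Cmax was unknown.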

[1] = curve of first compound, second compound 0.1 µM
[2] = curve of first compound, second compound 0.316 µM
[3] = curve of first compound, second compound 1 µM
[4] = curve of first compound, second compound 3.16 µM
[5] = curve of first compound, second compound 10 µM
[6] = second compound 0.1 µM, first compound 0.0316 µM
[7] = second compound 0.1 µM, first compound 0.1 µM
[8] = second compound 0.1 µM, first compound 0.316 µM
[9] = second compound 0.1 µM, first compound 1 µM
[10] = second compound 0.316 µM, first compound 0.0316 µM
[11] = second compound 0.316 µM, first compound 0.1 µM
[12] = second compound 0.316 µM, first compound 0.316 µM
[13] = second compound 0.316 µM, first compound 1 µM
[14] = second compound 1 µM, first compound 0.0316 µM
[15] = second compound 1 µM, first compound 0.1 µM
[16] = second compound 1 µM, first compound 0.316 µM
[17] = second compound 1 µM, first compound 1 µM
[18] = second compound 3.16 µM, first compound 0.0316 µM
[19] = second compound 3.16 µM, first compound 0.1 µM
[20] = second compound 3.16 µM, first compound 0.316 µM
[21] = second compound 3.16 µM, first compound 1 µM
[22] = second compound 10 µM, first compound 0.0316 µM
[23] = second compound 10 µM, first compound 0.1 µM
[24] = second compound 10 µM, first compound 0.316 µM
[25] = second compound 10 µM, first compound 1 µM
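Note: compound exposure lasted 7 days after spheroids had grown for 3 days.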

CC1COCCN1c1cc(-c2ccnn2C)c2ccnc(-c3ccn[nH]3)c2n1 (configuration not stated) + CC(CO)NC(=O)c1cc(-c2ccc(Cl)cc2)nn(-c2cnn(C)c2)c1=O
> 1 µM: IC50 [1] | IC50 [2] | IC50 [3] | IC50 [4] | IC50 [5]
inactive: viability, T/C (second compound 0.1 µM, first compound 0.00316 µM) 105% | viability, T/C (second compound 0.1 µM, first compound 0.01 µM) 112% | viability, T/C [6] 112% | viability, T/C [7] 94.2% | viability, T/C [8] 86.8% | viability, T/C [9] 63.3% | viability, T/C (second compound 0.316 µM, first compound 0.00316 µM) 102% | viability, T/C (second compound 0.316 µM, first compound 0.01 µM) 100% | viability, T/C [10] 110% | viability, T/C [11] 92.1% | viability, T/C [12] 77.7% | viability, T/C [13] 59.1% | viability, T/C (second compound 1 µM, first compound 0.00316 µM) 102% | viability, T/C (second compound 1 µM, first compound 0.01 µM) 101% | viability, T/C [14] 105% | viability, T/C [15] 87.5% | viability, T/C [16] 72.3% | viability, T/C [17] 58.3% | viability, T/C (second compound 3.16 µM, first compound 0.00316 µM) 85.8% | viability, T/C (second compound 3.16 µM, first compound 0.01 µM) 105% | viability, T/C [18] 84.6% | viability, T/C [19] 80.1% | viability, T/C [20] 74% | viability, T/C [21] 65% | viability, T/C (second compound 10 µM, first compound 0.00316 µM) 97.7% | viability, T/C (second compound 10 µM, first compound 0.01 µM) 82.7% | viability, T/C [22] 81.5% | viability, T/C [23] 73.9% | viability, T/C [24] 64.6% | viability, T/C [25] 58.1%

Nc1ccn(C2OC(CO)C(O)C2(F)F)c(=O)n1 (configuration not stated)
inactive: viability, T/C (compound 0.0316 µM) 74.1% and 75.2% and 60.5% | viability, T/C (compound 0.1 µM) 65.7% and 65.9% and 56.8% | viability, T/C (compound 0.316 µM) 48.5% and 56.9% and 47.4% | viability, T/C (compound 1 µM) 51.8% and 50.9% and 45.2% | viability, T/C (compound 3.16 µM) 42.4% and 53.5% and 42.6% | viability, T/C (compound 10 µM) 39.8% and 48.5% and 36.5%

CC1(C)CCC(CN2CCN(c3ccc(C(=O)NS(=O)(=O)c4ccc(NCC5CCOCC5)c([N+](=O)[O-])c4)c(Oc4cnc5[nH]ccc5c4)c3)CC2)=C(c2ccc(Cl)cc2)C1 + Cc1ccccc1N=Nc1ccc(NC(=O)c2ccnn2C)c(C)c1
> 10 µM: IC50 [1] | IC50 [2] | IC50 [3] | IC50 [4] | IC50 [5]
inactive: viability, T/C [6] 93.7% | viability, T/C [7] 102% | viability, T/C [8] 103% | viability, T/C [9] 95.9% | viability, T/C (second compound 0.1 µM, first compound 3.16 µM) 101% | viability, T/C (second compound 0.1 µM, first compound 10 µM) 68% | viability, T/C [10] 93.2% | viability, T/C [11] 103% | viability, T/C [12] 95.9% | viability, T/C [13] 95.5% | viability, T/C (second compound 0.316 µM, first compound 3.16 µM) 93.5% | viability, T/C (second compound 0.316 µM, first compound 10 µM) 74% | viability, T/C [14] 103% | viability, T/C [15] 101% | viability, T/C [16] 104% | viability, T/C [17] 102% | viability, T/C (second compound 1 µM, first compound 3.16 µM) 101% | viability, T/C (second compound 1 µM, first compound 10 µM) 65.8% | viability, T/C [18] 107% | viability, T/C [19] 95.2% | viability, T/C [20] 118% | viability, T/C [21] 102% | viability, T/C (second compound 3.16 µM, first compound 3.16 µM) 86.5% | viability, T/C (second compound 3.16 µM, first compound 10 µM) 71.8% | viability, T/C [22] 114% | viability, T/C [23] 124% | viability, T/C [24] 118% | viability, T/C [25] 113% | viability, T/C (second compound 10 µM, first compound 3.16 µM) 108% | viability, T/C (second compound 10 µM, first compound 10 µM) 68.2%

O=C(C=Cn1cnc(-c2cc(C(F)(F)F)cc(C(F)(F)F)c2)n1)NNc1cnccn1
> 3 µM: IC50 (curve of compound)
inactive: viability, T/C (compound 0.00949 µM) 99.1% and 89.9% and 89% | viability, T/C (compound 0.03 µM) 98.2% and 95.7% and 107% | viability, T/C (compound 0.0949 µM) 92% and 79.8% and 82.9% | viability, T/C (compound 0.3 µM) 73.7% and 77.4% and 74.8% | viability, T/C (compound 0.949 µM) 69.4% and 79.6% and 90% | viability, T/C (compound 3 µM) 77.4% and 72.9% and 69.9%

COc1ccc([C@@H](O)c2cc(-c3ncnc4cc(N5CCOCC5)ccc34)c(F)cc2Cl)nn1
inactive: viability, T/C (compound 0.0316 µM) 94.1% and 90.8% and 102% | viability, T/C (compound 0.1 µM) 93.3% and 98.1% and 115% | viability, T/C (compound 0.316 µM) 93.6% and 91.3% and 90.6% | viability, T/C (compound 1 µM) 79.1% and 78.4% and 71.7% | viability, T/C (compound 3.16 µM) 60.8% and 57.4% and 59.3% | viability, T/C (compound 10 µM) 33.6% and 28.5% and 30.6%
4.91 µM and 4.15 µM and 3.98 µM: IC50 (curve of compound)

O=C(C=Cc1cccc(S(=O)(=O)Nc2ccccc2)c1)NO
> 10 µM: IC50 (curve of compound)
inactive: viability, T/C (compound 0.0316 µM) 107% and 91.2% and 102% | viability, T/C (compound 0.1 µM) 114% and 101% and 110% | viability, T/C (compound 0.316 µM) 106% and 114% and 116% | viability, T/C (compound 1 µM) 106% and 116% and 112% | viability, T/C (compound 3.16 µM) 106% and 107% and 116% | viability, T/C (compound 10 µM) 86.2% and 96.8% and 77.4%
